Tested on: fibroblast 3T3 cells
Experiment: Cellular uptake of fluorescent saccharide-based derivative in fibroblast 3T3 cells (fluorescence microscopy)
Assay type: cell-based
Details: 100 μl of 0.5 mg/ml added to 3T3 cells, reacting overnight; FIG. 2G
Protocol: 1. Cultivate the fibroblast 3T3 cells in a DMEM medium (the DMEM medium contains 10% fetal bovine serum, 5 mM pyruvic acid, and antibiotics). The cells are cultivated in an incubator containing 5% CO2.
2. When the cells grow and occupy 80% of the bottom of the culture flask through cell division, suck out the culture medium and wash with 1×PBS, then add 0.05% trypsin to react for 1 minute in order to separate the cells, and add 5 ml culture medium, then centrifuge with […] for 10 minutes.
3. After centrifugation, remove the supernatant, then add 5 ml of culture medium, and evenly mix the cells and the culture medium. Take 30 μl of the cell solution and mix with 270 μl of trypan blue, then take 100 μl and place on a cytometer, and count the cell number using erythrocytomertry.
4. After counting the cells, adjust the cell number to 1×10^4 cells/ml, and take 1 ml of the cells and plant into a 24-well culture plate containing a glass slide, then place the cells in a cell incubator at 37° C. and 5% CO2. Incubate for 1 day, and then add 100 μl of 0.5 mg/ml glucosylglycine. After reacting overnight, wash twice with 1×PBS (10 minutes/turn).
5. Add 4% paraformaldehyde to the culture plate, and place in room temperature for twenty minutes to fix the cells, then remove the paraformaldehyde and wash 3 times with 1×PBS (10 minutes/turn).
6. […]

Compound: O=C(O)CNC1O[C@H](CO)[C@@H](O)[C@H](O)[C@H]1O (stereo partly drawn) [glucosylglycine, D-glucosylglycine]
- cell uptake (cells emit fluorescence after being fed): uptakable by cells
